Data as given in article PMC12901071 (Scientific Reports, 2026).

Target: T1, human membrane progestin receptor α (hmPRα) (Homo sapiens, UniProt Q86WK9)
T1 sequence (Q86WK9 1-346): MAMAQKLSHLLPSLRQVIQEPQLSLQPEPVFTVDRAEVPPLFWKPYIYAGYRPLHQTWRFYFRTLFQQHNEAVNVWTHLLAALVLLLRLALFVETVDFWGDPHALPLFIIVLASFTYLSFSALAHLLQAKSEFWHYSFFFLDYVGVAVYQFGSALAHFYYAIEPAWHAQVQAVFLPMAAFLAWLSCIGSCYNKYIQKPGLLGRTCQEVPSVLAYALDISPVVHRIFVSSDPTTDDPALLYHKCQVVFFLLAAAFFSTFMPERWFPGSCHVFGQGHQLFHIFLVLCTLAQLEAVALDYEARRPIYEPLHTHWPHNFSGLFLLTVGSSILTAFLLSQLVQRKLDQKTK
Assay: GQD-hmPRα fluorescence competition with P4-BSA-FITC
Type: binding

## CC(=O)[C@H]1CC[C@H]2[C@@H]3CCC4=CC(=O)CC[C@]4(C)[C@H]3CC[C@]12C [progesterone]
  IC50: 1900 nM

## CCCC(O)C(=O)OC(CCC)C(=O)O (centres unmarked) [1-CB 2-HPNA, 1-carboxybutyl 2-hydroxypentanoate]
  IC50: 1260 nM
